Assay results taken from the NIST ThermoML archive (doi:10.1016/j.tca.2008.10.017).

Assay: molar heat capacity at constant pressure
Details: 101.33 kPa, Crystal 2, Small (less than 1 g) adiabatic calorimetry

CCCC[N+](CCCC)(CCCC)CCCC.[I-] [tetrabutylammonium iodide]
Details	molar heat capacity at constant pressure [J/K/mol]
5 K	0.875
5.6 K	0.546
5.7 K	0.62
5.82 K	0.735
5.88 K	0.786
6.15 K	1.05
6.33 K	1.24
6.6 K	1.54
6.69 K	1.67
6.89 K	1.87
6.98 K	2.05
7.07 K	2.12
7.26 K	2.39
7.35 K	2.49
7.45 K	2.68
7.54 K	2.82
7.74 K	3.02
8.03 K	3.55
8.14 K	3.66
8.24 K	3.76
8.45 K	4.16
8.55 K	4.34
8.66 K	4.58
8.77 K	4.69
8.87 K	4.87
9.09 K	5.28
9.2 K	5.43
9.42 K	5.78
9.53 K	5.96
9.76 K	6.52
9.87 K	6.76
9.98 K	6.85
10 K	6.91
10.26 K	7.37
10.71 K	8.33
11.16 K	9.2
11.61 K	10.3
12.08 K	11.3
12.55 K	12.5
13.04 K	13.6
13.53 K	14.9
14.03 K	16
14.54 K	17.2
15.05 K	18.56
15.57 K	19.98
16.09 K	21.47
16.61 K	22.94
17.14 K	24.46
17.67 K	25.9
18.2 K	27.48
18.76 K	29
19.31 K	30.77
19.85 K	32.46
20 K	32.91
20.98 K	35.93
22.55 K	40.49
24.16 K	45.21
25.78 K	49.77
27.42 K	54.6
29.07 K	59.44
30 K	62.21
30.73 K	64.36
32.39 K	69.26
34.07 K	74.01
35.76 K	78.8
37.45 K	83.46
39.15 K	87.9
40 K	90.12
40.85 K	92.36
42.56 K	96.45
44.26 K	100.6
45.97 K	104.7
47.72 K	108.8
49.44 K	112.6
50 K	113.7
51.16 K	116.5
52.88 K	120.1
54.61 K	123.5
56.34 K	127.3
58.07 K	131
59.8 K	134.9
60 K	135.4
61.53 K	138.8
63.27 K	142.4
65.01 K	146.4
66.75 K	150
68.49 K	153.6
70 K	156.1
72.19 K	159.7
74.35 K	163.7
76.49 K	167.2
78.63 K	170.6
80 K	172.8
80.76 K	173.7
82.88 K	177.6
84.02 K	179.7
85.33 K	181.8
87.83 K	185.8
89.91 K	189.2
90 K	189.7
91.99 K	192.3
94.06 K	195.1
96.13 K	198.4
98.18 K	201.3
100 K	204.1
100.24 K	204.2
102.48 K	208.5
104.92 K	211.3
107.37 K	214.8
109.82 K	217.8
110 K	217.9
112.27 K	220.9
114.75 K	224.1
117.24 K	227.3
119.7 K	230.1
120 K	230.8
122.11 K	233.2
124.58 K	236.3
127.05 K	239.3
129.51 K	242.1
130 K	242.9
131.98 K	245.1
134.46 K	248.1
136.93 K	251
139.4 K	253.8
140 K	254.4
141.88 K	256.5
144.36 K	259.3
146.84 K	262.3
149.32 K	264.6
150 K	265.4
151.8 K	267.5
154.28 K	270.5
156.76 K	273
159.25 K	275.4
160 K	276.3
161.68 K	277.9
164.17 K	280.8
166.66 K	283.6
169.14 K	286.4
170 K	287.1
171.63 K	288.8
174.12 K	291.3
179.09 K	296.7
180 K	297.8
181.58 K	299.2
184.06 K	302
186.55 K	304.6
189.03 K	307.5
190 K	308.6
191.52 K	310
194 K	312.6
196.48 K	315.8
198.96 K	318.2
200 K	319.4
201.37 K	321.1
203.83 K	324
206.3 K	326.7
208.78 K	329.1
210 K	330.4
211.25 K	332.3
213.73 K	334
216.22 K	337
218.7 K	339.9
220 K	341.7
221.19 K	342.7
223.68 K	345.9
226.17 K	348.6
228.67 K	351.6
230 K	353.2
231.16 K	354.6
233.66 K	357.7
235.16 K	359.3
237.7 K	362.3
238.66 K	363.9
240 K	365.1
241.12 K	366.7
243.63 K	369.8
246.14 K	372.6
248.65 K	375.9
250 K	377.4
251.17 K	379.2
253.68 K	382.1
256.2 K	385.3
258.72 K	388.5
260 K	390.2
261.24 K	392
263.76 K	395.2
266.29 K	398.2
268.81 K	401.5
270 K	403.3
271.34 K	405
273.15 K	407.6
273.87 K	408.1
276.4 K	411.5
278.93 K	415
280 K	416.9
281.43 K	418.6
283.96 K	421.7
286.49 K	425.5
289.02 K	429.5
290 K	430.8
291.54 K	433.4
294.07 K	436.3
296.58 K	439.9
298.15 K	442.5
299.1 K	443.6
300 K	445.2
301.98 K	449.2
305.32 K	453.3
308.64 K	459.7
310 K	460.1
311.93 K	464
315.18 K	468.4
318.42 K	473.1
320 K	475.7
321.63 K	477.8
324.82 K	483
327.99 K	488.3
330 K	492.4
331.13 K	493.9
334.25 K	499.5
337.34 K	505.8
340 K	511
340.41 K	511.9
343.45 K	518.1
346.47 K	524.6
349.45 K	530.9
350 K	532.3
352.15 K	537.6
